Data: patent US11376264B2, “Use of bromodomain-containing protein 9 antagonists in combination with vitamin D receptor agonists in diabetes treatment” (Salk Institute for Biological Studies, priority 2017, dated 2022)

Test system: INS1 cells
Experiment: Thapsigargin or tunicamycin-induced ER stress in INS1 cells (p-PERK Western)
Format: cell-based, rat
Conditions: Cal pre-treated 1 hour, stressor overnight

C=C1/C(=C\C=C2/CCC[C@]3(C)[C@@H]([C@H](C)/C=C/[C@@H](O)C4CC4)CC[C@@H]23)C[C@@H](O)C[C@@H]1O [Cal, calcipotriol]
ER stress (p-PERK): attenuated
